Laboratory results: PubChem BioAssay (NCI)
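Protocol summary: plate cells (96-well), add compound at 5 concentrations, incubate 48 h, interpolate endpoints linearly. TGI denotes the concentration required for complete inhibition of growth.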

Experiments:
Assay in all cases: NCI anticancer screen, dose series, 48 h
MCF7 breast = test system: MCF7 breast
U251 CNS = test system: U251 CNS
NCI-H226 lung = test system: NCI-H226 lung
A498 renal = test system: A498 renal
KM12 colon = test system: KM12 colon
SF-295 CNS = test system: SF-295 CNS
HT29 colon = test system: HT29 colon
CAKI-1 renal = test system: CAKI-1 renal
NCI-H522 lung = test system: NCI-H522 lung
OVCAR-3 ovarian = test system: OVCAR-3 ovarian
IGROV1 ovarian = test system: IGROV1 ovarian
K-562 leukemia = test system: K-562 leukemia
SNB-19 CNS = test system: SNB-19 CNS
DU-145 prostate = test system: DU-145 prostate
T-47D breast = test system: T-47D breast
SF-539 CNS = test system: SF-539 CNS
SK-MEL-5 melanoma = test system: SK-MEL-5 melanoma
NCI-H460 lung = test system: NCI-H460 lung
MDA-MB-435 = test system: MDA-MB-435
LOX IMVI melanoma = test system: LOX IMVI melanoma
MDA-N = test system: MDA-N
COLO 205 colon = test system: COLO 205 colon
TK-10 renal = test system: TK-10 renal
RPMI-8226 leukemia = test system: RPMI-8226 leukemia
PC-3 prostate = test system: PC-3 prostate
SN12C renal = test system: SN12C renal
OVCAR-8 ovarian = test system: OVCAR-8 ovarian
A549 NSCLC = test system: A549 NSCLC
MDA-MB-231 breast = test system: MDA-MB-231 breast
M14 melanoma = test system: M14 melanoma
786-0 renal = test system: 786-0 renal
HCT-15 colon = test system: HCT-15 colon
SW-620 colon = test system: SW-620 colon
ACHN renal = test system: ACHN renal
UACC-257 melanoma = test system: UACC-257 melanoma
SNB-75 CNS = test system: SNB-75 CNS
NCI-H23 lung = test system: NCI-H23 lung
RXF 393 renal = test system: RXF 393 renal
HCT-116 colon = test system: HCT-116 colon
HL-60(TB) leukemia = test system: HL-60(TB) leukemia
SK-OV-3 ovarian = test system: SK-OV-3 ovarian
SK-MEL-2 melanoma = test system: SK-MEL-2 melanoma
MOLT-4 leukemia = test system: MOLT-4 leukemia
UACC-62 melanoma = test system: UACC-62 melanoma
HS 578T breast = test system: HS 578T breast
OVCAR-5 ovarian = test system: OVCAR-5 ovarian
NCI/ADR-RES ovarian = test system: NCI/ADR-RES ovarian
BT-549 breast = test system: BT-549 breast
OVCAR-4 ovarian = test system: OVCAR-4 ovarian
EKVX NSCLC = test system: EKVX NSCLC
HOP-62 NSCLC = test system: HOP-62 NSCLC
CCRF-CEM leukemia = test system: CCRF-CEM leukemia
SF-268 CNS = test system: SF-268 CNS
SK-MEL-28 melanoma = test system: SK-MEL-28 melanoma
MALME-3M melanoma = test system: MALME-3M melanoma
HOP-92 NSCLC = test system: HOP-92 NSCLC
UO-31 renal = test system: UO-31 renal

Measured: TGI

CCOP(=O)(/C=C/n1ccc(N)nc1=O)OCC
not listed: MALME-3M melanoma | HOP-92 NSCLC | UO-31 renal
> 100 µM: all other assays above

C#CCOC(=O)C(N)C(C)O (stereo unspecified)
not listed: SNB-19 CNS | SF-539 CNS | NCI-H460 lung | HCT-15 colon | OVCAR-4 ovarian
> 100 µM: all other assays above
